Measured values reported in ChEMBL document CHEMBL1201862, “PubChem BioAssay data set” (2004).
Several values for one entry are separate records, joined by “and”; a condition that tells them apart may be missing. Equal entries are not always repeated.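 Following 48 hours of exposure in 96-well plates, responses at five concentrations were used to interpolate endpoints linearly. GI50 = concentration required for 50% inhibition of growth.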 Activity calls are given as the source filed them. Cut-off read from the data, not from the text of the source: active = GI50 up to about 1.1 µM and inactive = higher.

Tests used:
Experiment in all cases: growth of human tumour cells (NCI), 48 h
COLO 205 = system: COLO 205
EKVX = system: EKVX
SF-268 = system: SF-268
RXF 393 = system: RXF 393
RPMI-8226 = system: RPMI-8226
Malme-3M = system: Malme-3M
CAKI-1 = system: CAKI-1
CCRF-CEM = system: CCRF-CEM
IGROV-1 = system: IGROV-1
NCI-H23 = system: NCI-H23
SNB-19 = system: SNB-19
SK-OV-3 = system: SK-OV-3
HCC 2998 = system: HCC 2998
NCI-H226 = system: NCI-H226
HCT-116 = system: HCT-116
SR = system: SR
PC-3 = system: PC-3
MDA-MB-435 = system: MDA-MB-435
MDA-MB-231 = system: MDA-MB-231

Measured: GI50

CC1CC(=O)C(CC(=O)O)C1C(C(=O)C(=O)Nc1c(C#N)cccc1[N+](=O)[O-])[N+](=O)[O-] (stereo unspecified)
inactive: COLO 205 > 100 µM | EKVX > 100 µM | SF-268 > 100 µM | RXF 393 > 100 µM | RPMI-8226 > 100 µM | Malme-3M > 100 µM | CAKI-1 > 100 µM | CCRF-CEM > 100 µM | IGROV-1 > 100 µM | NCI-H23 > 100 µM | SNB-19 > 100 µM | SK-OV-3 > 100 µM | HCC 2998 > 100 µM | NCI-H226 > 100 µM | HCT-116 > 100 µM | SR > 100 µM

CN(CCO)c1nc2c(c(=O)[nH]1)CNCC2
inactive: COLO 205 > 100 µM | EKVX > 100 µM | SF-268 > 100 µM | RXF 393 > 100 µM | RPMI-8226 > 100 µM | Malme-3M > 100 µM | CAKI-1 > 100 µM | CCRF-CEM > 100 µM | IGROV-1 > 100 µM | NCI-H23 > 100 µM | SNB-19 > 100 µM | SK-OV-3 > 100 µM | HCC 2998 > 100 µM | NCI-H226 > 100 µM | HCT-116 > 100 µM | SR > 100 µM

COC(=O)C(=O)C(C(=O)C(=O)Nc1ccc(OC)cc1[N+](=O)[O-])c1nc2ccc([N+](=O)[O-])cc2nc1O (stereo unspecified)
inactive: COLO 205 > 100 µM | EKVX > 100 µM | SF-268 > 100 µM | RXF 393 > 100 µM | RPMI-8226 > 100 µM | Malme-3M > 100 µM | CAKI-1 > 100 µM | CCRF-CEM > 100 µM | IGROV-1 > 100 µM | NCI-H23 > 100 µM | SNB-19 > 100 µM | SK-OV-3 > 100 µM | HCC 2998 > 100 µM | NCI-H226 > 100 µM | HCT-116 > 100 µM | SR > 100 µM

CCCCN(CCCC)CC(C(=O)Nc1ccc([N+](=O)[O-])cc1[N+](=O)[O-])/C(C)=N\NC(=O)C[N+](C)(C)C (stereo unspecified)
inactive: COLO 205 35.7 µM | EKVX 30.3 µM | SF-268 > 100 µM | RXF 393 92.7 µM | RPMI-8226 27.7 µM | Malme-3M > 100 µM | CAKI-1 42.7 µM | CCRF-CEM 41.8 µM | IGROV-1 > 100 µM | NCI-H23 > 100 µM | SNB-19 > 100 µM | SK-OV-3 > 100 µM | HCC 2998 > 100 µM | NCI-H226 > 100 µM | HCT-116 69.5 µM | SR 25.1 µM

COC(=O)CC1(O)C(C=C(C)C)C(C(=O)OC)C(=O)C(C(=O)OC)C1C(=O)OC (stereo unspecified)
inactive: COLO 205 > 100 µM | PC-3 > 100 µM | EKVX > 100 µM | SF-268 > 100 µM | RXF 393 > 100 µM | RPMI-8226 > 100 µM | Malme-3M > 100 µM | CAKI-1 > 100 µM | CCRF-CEM > 100 µM | MDA-MB-435 > 100 µM | IGROV-1 > 100 µM | NCI-H23 > 100 µM | SNB-19 > 100 µM | MDA-MB-231 > 100 µM | SK-OV-3 > 100 µM | HCC 2998 > 100 µM | NCI-H226 > 100 µM | HCT-116 > 100 µM | SR > 100 µM

Cc1cc(-c2nc3c(F)cccc3s2)ccc1N
inactive: COLO 205 80.5 µM | PC-3 97.5 µM | EKVX 2.42 µM | SF-268 39.9 µM | RXF 393 41.7 µM | RPMI-8226 26.9 µM | Malme-3M 28.8 µM | CAKI-1 50.4 µM | CCRF-CEM 3.94 µM | MDA-MB-435 57.3 µM | NCI-H23 32.8 µM | MDA-MB-231 > 100 µM | SK-OV-3 > 100 µM | HCT-116 85.1 µM | SR 48 µM

COC(=O)C(=O)C(C(=O)C(=O)Nc1ccc(F)cc1)c1nc2ccc([N+](=O)[O-])cc2nc1O (stereo unspecified)
inactive: COLO 205 > 100 µM | EKVX > 100 µM | SF-268 > 100 µM | RXF 393 > 100 µM | RPMI-8226 > 100 µM | Malme-3M > 100 µM | CAKI-1 > 100 µM | CCRF-CEM > 100 µM | IGROV-1 > 100 µM | NCI-H23 > 100 µM | SNB-19 > 100 µM | SK-OV-3 > 100 µM | HCC 2998 > 100 µM | NCI-H226 > 100 µM | HCT-116 > 100 µM | SR > 100 µM

CCCCNc1nc(C#N)c(N)s1
inactive: COLO 205 > 100 µM | SF-268 > 100 µM | RPMI-8226 > 100 µM | Malme-3M > 100 µM | CAKI-1 > 100 µM | IGROV-1 > 100 µM | NCI-H23 > 100 µM | SNB-19 > 100 µM | SK-OV-3 > 100 µM | HCC 2998 > 100 µM | NCI-H226 > 100 µM | HCT-116 > 100 µM | SR > 100 µM

COC(=O)C(CC(=O)Nc1ccc(Cl)c(Cl)c1)C(=O)C(=O)Nc1ccc(Cl)c(Cl)c1 (stereo unspecified)
inactive: COLO 205 > 100 µM | EKVX > 100 µM | SF-268 > 100 µM | RXF 393 > 100 µM | RPMI-8226 > 100 µM | Malme-3M > 100 µM | CAKI-1 > 100 µM | CCRF-CEM > 100 µM | IGROV-1 > 100 µM | NCI-H23 > 100 µM | SNB-19 > 100 µM | SK-OV-3 > 100 µM | HCC 2998 > 100 µM | NCI-H226 > 100 µM | HCT-116 > 100 µM | SR 33.3 µM

CC1(C)OC2OC(C(COS(=O)(=O)C(F)(F)F)N=[N+]=[N-])C(OC(=O)c3ccccc3)C2O1 (stereo unspecified)
inactive: COLO 205 > 100 µM | PC-3 > 100 µM | EKVX > 100 µM | SF-268 > 100 µM | RXF 393 > 100 µM and 59.3 µM | Malme-3M > 100 µM | CAKI-1 > 100 µM | CCRF-CEM > 100 µM | MDA-MB-435 > 100 µM | NCI-H23 > 100 µM | SNB-19 > 100 µM | MDA-MB-231 > 100 µM | SK-OV-3 > 100 µM | HCC 2998 > 100 µM | NCI-H226 > 100 µM | HCT-116 > 100 µM

C1CC[N+]23CCCC[N+]2(C1)CCCC3 (stereo unspecified)
inactive: COLO 205 > 100 µM | EKVX > 100 µM | SF-268 > 100 µM | RPMI-8226 > 100 µM | Malme-3M > 100 µM | CAKI-1 > 100 µM | CCRF-CEM > 100 µM | IGROV-1 > 100 µM | NCI-H23 > 100 µM | SNB-19 > 100 µM | SK-OV-3 > 100 µM | HCC 2998 > 100 µM | NCI-H226 > 100 µM | HCT-116 > 100 µM | SR > 100 µM

COc1cc(/C=C2\[C@H]3c4c(c(OC)c(C)c(OC)c4OC)C[C@@H](C(=O)N2Cc2ccccc2)N3C(=O)OC(C)C)c(OC)c(C)c1OC
inactive: COLO 205 53.7 µM | EKVX 52.5 µM | SF-268 > 100 µM | RXF 393 > 100 µM | RPMI-8226 27.2 µM | Malme-3M 60.1 µM | CCRF-CEM 54 µM | IGROV-1 > 100 µM | NCI-H23 78 µM | SK-OV-3 2.52 µM | HCC 2998 29.6 µM | NCI-H226 6.08 µM | HCT-116 58.7 µM | SR 21.8 µM

O=C1c2ccc(O)c(O)c2C(=O)c2c(O)ccc(O)c21 [QUINALIZARIN]
inactive: COLO 205 22.2 µM | EKVX 26.9 µM | SF-268 26.6 µM | RXF 393 26.1 µM | RPMI-8226 28.2 µM | CAKI-1 6.05 µM | CCRF-CEM 20.2 µM | IGROV-1 38.4 µM | NCI-H23 31.6 µM | SNB-19 29 µM | SK-OV-3 29.7 µM | HCC 2998 23.3 µM | NCI-H226 22 µM | HCT-116 20.6 µM | SR 26.5 µM

Cc1ccccc1-n1c(=O)sc2c(=O)n(-c3ccccc3)c(=S)[nH]c21
inactive: COLO 205 > 100 µM | EKVX > 100 µM | SF-268 > 100 µM | RXF 393 > 100 µM | RPMI-8226 > 100 µM | Malme-3M > 100 µM | CAKI-1 > 100 µM | CCRF-CEM 47.3 µM | IGROV-1 > 100 µM | NCI-H23 > 100 µM | SNB-19 > 100 µM | SK-OV-3 > 100 µM | HCC 2998 > 100 µM | NCI-H226 > 100 µM | HCT-116 > 100 µM | SR > 100 µM

COc1cc(/C=N/N=C(\N)NO)cc(Cl)c1O
inactive: COLO 205 > 100 µM | EKVX 30.9 µM | SF-268 46.7 µM | RXF 393 11.5 µM | RPMI-8226 > 100 µM | Malme-3M 55.2 µM | CAKI-1 26.9 µM | CCRF-CEM 38.1 µM | IGROV-1 69.7 µM | NCI-H23 36.9 µM | SNB-19 > 100 µM | SK-OV-3 55.8 µM | HCC 2998 45.3 µM | NCI-H226 22.8 µM | HCT-116 55.7 µM | SR 40.7 µM

CN(C)CC[N+]1=Nc2cccc3cccc(c23)N1
inactive: COLO 205 31.2 µM | EKVX > 84.7 µM | SF-268 > 89.9 µM | RPMI-8226 35.1 µM | Malme-3M > 100 µM | CAKI-1 31 µM | CCRF-CEM 27.8 µM | IGROV-1 61.8 µM | NCI-H23 > 77.3 µM | SNB-19 > 49.5 µM | SK-OV-3 > 100 µM | HCC 2998 > 95.7 µM | NCI-H226 71 µM | HCT-116 3.86 µM | SR 19.8 µM

Cc1cc([N+](=O)[O-])ccc1NC(=O)C(=O)C(C(=O)c1ccccc1-c1ccccc1)C1OC(=O)c2ccccc21 (stereo unspecified)
inactive: COLO 205 20.8 µM | EKVX > 10 µM | SF-268 21.6 µM | RXF 393 4.85 µM | RPMI-8226 24 µM | Malme-3M 13.1 µM | CAKI-1 23.8 µM | CCRF-CEM 22.9 µM | IGROV-1 19.6 µM | NCI-H23 25.6 µM | SNB-19 3.44 µM | SK-OV-3 22.7 µM | HCC 2998 15.5 µM | NCI-H226 12.2 µM | HCT-116 16 µM | SR 16.4 µM
